Test results published in the supplement of paper PMC10307832.

Tests used:
Test in all cases: relative viability (nuclei count vs DMSO), 5 days (fraction); higher = more cells survive
[1] = compound: C1CNCCC1C2=CC(=NN2)C3=CC=NC=C3 + Cc1nc(Nc2ncc(C(=O)Nc3c(C)cccc3Cl)s2)cc(N2CCN(CCO)CC2)n1 [Dasatinib] (partner 0.075 µM)
Outline: (§1)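 Cells from lung cancer lines were seeded into 1536-well plates and, one day later, dosed by pin tool. Treatments were either a single drug or a fixed dose of an anchor drug with five library-drug doses (not always all listed) in √10 steps. After 5 days, nuclei were stained in a one-step fixation (final 0.05% Triton X-100, 1% formaldehyde, 1 ug/ml Hoechst) and counted on 4× images, and relative viability is the treated-to-vehicle nuclei ratio, as the median of duplicate plates.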

[2] = compound: C[C@@H](N)c1ccc(C(=O)Nc2ccnc3[nH]ccc23)cc1 + COc1cccc2cc(-c3nc([C@H]4CC[C@H](C(=O)O)CC4)n4ncnc(N)c34)[nH]c12 [OSI-027] (partner 0.5 µM)
Outline: as §1

[3] = compound: C[C@@H](N)c1ccc(C(=O)Nc2ccnc3[nH]ccc23)cc1 + NC(=O)Nc1cc(-c2cccc(F)c2)sc1C(=O)N[C@H]1CCCNC1 [AZD7762] (partner 0.2 µM)
Outline: as §1

[4] = compound: C1CNCCC1C2=CC(=NN2)C3=CC=NC=C3 + CC(=O)c1c(C)c2cnc(Nc3ccc(N4CCNCC4)cn3)nc2n(C2CCCC2)c1=O [Palbociclib] (partner 0.5 µM)
Outline: as §1

| Cell Line | relative viability ([1]; first compound 0.08 µM) | relative viability ([1]; first compound 0.8 µM) | relative viability ([1]; first compound 2.53 µM) | relative viability ([1]; first compound 8 µM) | relative viability ([2]; first compound 0.04 µM) | relative viability ([2]; first compound 0.1265 µM) | relative viability ([2]; first compound 0.4 µM) | relative viability ([2]; first compound 4 µM) | relative viability ([3]; first compound 0.04 µM) | relative viability ([3]; first compound 0.1265 µM) | relative viability ([3]; first compound 0.4 µM) | relative viability ([3]; first compound 4 µM) | relative viability ([4]; first compound 0.08 µM) | relative viability ([4]; first compound 2.53 µM) | relative viability ([4]; first compound 8 µM) | relative viability ([4]; first compound 0.8 µM) | relative viability ([2]; first compound 1.265 µM) | relative viability ([3]; first compound 1.265 µM) |
| --- | --- | --- | --- | --- | --- | --- | --- | --- | --- | --- | --- | --- | --- | --- | --- | --- | --- | --- |
| NCI-H1793 | 0.335 | 0.357 | 0.352 | 0.404 | 0.322 | 0.284 | 0.254 | 0.355 | 0.409 | 0.62 | 0.442 | 0.73 | 0.296 | 0.329 | 0.364 | – | – | – |
| NCI-H1915 | 0.286 | 0.311 | 0.316 | 0.308 | 0.562 | 0.64 | 0.63 | 0.489 | – | 0.785 | 0.697 | 0.691 | 0.502 | 0.493 | 0.529 | 0.521 | – | – |
| NCI-H1944 | 0.201 | 0.206 | 0.231 | 0.232 | 0.409 | 0.368 | 0.397 | 0.384 | 0.479 | 0.542 | 0.611 | 0.606 | 0.267 | 0.353 | 0.359 | 0.326 | 0.26 | 0.798 |
| NCI-H1975 | 0.405 | 0.417 | 0.492 | 0.413 | 0.799 | 0.876 | 0.666 | 0.533 | 0.593 | 0.613 | 0.688 | 0.434 | 0.629 | 0.668 | 0.645 | 0.342 | 0.673 | 0.513 |
| NCI-H1993 | 0.538 | 0.541 | 0.56 | 0.667 | 0.529 | 0.556 | 0.574 | 0.603 | 0.867 | 0.817 | – | 1.26 | 0.704 | 0.698 | 0.738 | 0.737 | 0.577 | 1.04 |
| NCI-H2085 | 0.244 | – | 0.296 | 0.215 | 0.744 | 0.816 | 0.77 | 0.717 | 0.947 | 0.914 | 0.96 | 1.09 | 0.519 | 0.481 | 0.485 | – | 0.397 | 1.13 |
| NCI-H2087 | 0.662 | 1.02 | 0.75 | 0.84 | 1.02 | 0.721 | 0.924 | 0.613 | 1.29 | 1.06 | 1.07 | 1.08 | 0.18 | 0.196 | 0.276 | 0.22 | – | 1.06 |
| NCI-H2126 | 0.504 | 0.613 | 0.655 | 0.661 | 0.9 | 0.654 | 0.797 | 0.944 | 1.01 | 1.04 | 1.17 | 1.12 | 0.364 | 0.322 | 0.354 | 0.368 | – | 0.982 |
| NCI-H2170 | 0.536 | 0.52 | 0.574 | 0.643 | 0.775 | 0.739 | 0.747 | 0.718 | 0.972 | 0.935 | 1.05 | 0.832 | 0.36 | 0.407 | 0.4 | 0.454 | 0.515 | 0.827 |
| NCI-H2342 | 0.343 | 0.268 | 0.357 | 0.41 | 0.711 | 0.694 | 0.763 | 0.675 | 0.508 | 0.643 | 0.534 | 0.584 | 0.486 | 0.587 | 0.556 | 0.545 | 0.655 | 0.611 |
| NCI-H2347 | 0.352 | 0.288 | 0.307 | 0.332 | 0.502 | 0.494 | 0.414 | 0.631 | 0.825 | 0.603 | 0.973 | 1.01 | 0.385 | 0.44 | 0.431 | 0.453 | – | 0.878 |
| NCI-H2405 | 0.201 | 0.213 | 0.187 | 0.202 | 0.594 | 0.742 | 0.695 | 0.36 | – | 0.702 | 0.438 | 0.179 | 0.502 | 0.586 | 0.507 | 0.519 | 0.542 | 0.253 |
| NCI-H3122 | 0.605 | 0.879 | 0.983 | 0.859 | 1.2 | 1.14 | 1.06 | 1.1 | 1.13 | 0.982 | 1.06 | 0.955 | 0.152 | 0.181 | 0.178 | 0.185 | – | 1.06 |
| PC-3 [JPC-3] | 0.982 | 1.1 | 1.01 | 0.966 | 0.789 | 0.76 | 0.783 | 0.792 | 1.09 | 0.87 | 0.925 | 0.912 | 0.547 | 0.558 | 0.541 | 0.495 | 0.775 | 1.05 |
| PC-14 | 0.245 | 0.272 | 0.296 | 0.221 | 0.846 | 0.968 | 0.904 | 0.625 | 0.251 | 0.347 | 0.364 | 0.469 | 0.531 | 0.613 | 0.468 | 0.585 | 0.712 | 0.313 |
| RERF-LC-KJ | 0.795 | 0.934 | 0.893 | 0.778 | 0.555 | 0.628 | 0.591 | 0.6 | 1.08 | 1.04 | 1.33 | 1.18 | 0.989 | 1.11 | 1.06 | 1.14 | 0.672 | 1.08 |
| SW 900 | 0.568 | 0.445 | 0.519 | 0.452 | 0.657 | 0.608 | 0.596 | 0.824 | 0.772 | 0.698 | 0.661 | 0.878 | 0.551 | 0.584 | 0.561 | – | 0.688 | 0.777 |
